In patent US10160747B2, “Compounds and methods for kinase modulation, and indications therefor” (Plexxikon Inc., priority 2016, dated 2018):

How the values were obtained:
[1] = system: MOLM-14 F691L (endogenous FLT3 ITD and transfected FLT3 F691L); test: MOLM-14 F691L cell proliferation assay (CellTiter-Glo); assay type: cell-based; conditions: Homo sapiens, MOLM-14, 72 h; 3 d growth, GMean
From the text: (§1) The FLT3 inhibitors may be assessed using the MOLM-14, Acute Myeloid Leukemia cell line that endogenously expresses FLT3 ITD or derivatives of the human FLT3 AML cell line which acquired the D835Y (activation loop) of F691L (gatekeeper) mutation after selection in escalating doses of the FLT3 Inhibitor AC220. FLT3 inhibitors may also be assessed using cells that are engineered to express mutant FLT3. For engineered cells, murine Ba/F3 cells were transfected with full-length FLT3 ITD/D835Y mutations. The parental BA/F3 cells are dependent upon Interleukin-3 (IL-3) for survival, and introduction of the FLT3 constructs rendered these cells dependent upon FLT3 kinase activity when cultured in the absences of IL-3. Engineered BA/F3 cell growth assays can be performed in either the […] of IL-3, to assess the compound inhibition of FLT3 or to detect the presence of off-target activity, respectively. Inhibitors of FLT3 kinase activity reduce or eliminate the FLT3 oncogenic signaling, resulting in reduced cell proliferation. This inhibition is measured as a function of compound concentration to assess IC50 values.
(§2) Cell lines used in proliferation assays are as follows in Table 2:
(§3) Cells were seeded at 1×10^4 cells per well of a 96 well cell culture plate in 50 μl of cell culture medium. Compounds were dissolved in DMSO, typically at a concentration of 0.5 mM and were serially diluted 1:3 for a total of eight points and added to the cells to final concentrations of […], 0.0041, 0.0014 and 0.00046 μM in 100 μl cell culture medium (final concentration 0.2% DMSO). […] The cells were incubated at 37° C., 5% CO2 for three days. CellTiter-Glo Buffer (Promega Cell Viability Assay catalog #G7573) and substrate were equilibrated to room temperature, and enzyme/substrate Recombinant Firefly Luciferase/Beetle Luciferin was reconstituted. The cell plates were equilibrated to room temperature for 30 minutes, then lysed by addition of an equivalent volume of the Celltiter-Glo Reagent. The plate was mixed for 10 minutes on a plate shaker to lyse the cells. The plates were read on a Tecan M1000 using Luminescence protocol modified to read 0.1 s per well. The luminescence reading assesses the ATP content, which correlates directly with cell number such that the reading as a function of compound concentration was used to determine the IC50 value.

[2] = system: MOLM-14 D835Y (endogenous FLT3 ITD and transfected FLT3 D835Y); test: MOLM-14 D835Y cell proliferation assay (CellTiter-Glo); assay type: cell-based; conditions: Homo sapiens, MOLM-14, 72 h; 3 d growth, GMean
From the text: as §1, §2, §3

[3] = biological target: T1, BA/F3-FLT3-ITD + D835Y (Homo sapiens, UniProt P36888, D835Y, cells depend on it, form not given); test: Engineered BA/F3 cell growth assay, FLT3 ITD/D835Y; assay type: cell-based, murine; conditions: 3 d growth
T1 sequence (P36888 with tags, fused parts or gaps INS600HVDFREYEYD/D835Y): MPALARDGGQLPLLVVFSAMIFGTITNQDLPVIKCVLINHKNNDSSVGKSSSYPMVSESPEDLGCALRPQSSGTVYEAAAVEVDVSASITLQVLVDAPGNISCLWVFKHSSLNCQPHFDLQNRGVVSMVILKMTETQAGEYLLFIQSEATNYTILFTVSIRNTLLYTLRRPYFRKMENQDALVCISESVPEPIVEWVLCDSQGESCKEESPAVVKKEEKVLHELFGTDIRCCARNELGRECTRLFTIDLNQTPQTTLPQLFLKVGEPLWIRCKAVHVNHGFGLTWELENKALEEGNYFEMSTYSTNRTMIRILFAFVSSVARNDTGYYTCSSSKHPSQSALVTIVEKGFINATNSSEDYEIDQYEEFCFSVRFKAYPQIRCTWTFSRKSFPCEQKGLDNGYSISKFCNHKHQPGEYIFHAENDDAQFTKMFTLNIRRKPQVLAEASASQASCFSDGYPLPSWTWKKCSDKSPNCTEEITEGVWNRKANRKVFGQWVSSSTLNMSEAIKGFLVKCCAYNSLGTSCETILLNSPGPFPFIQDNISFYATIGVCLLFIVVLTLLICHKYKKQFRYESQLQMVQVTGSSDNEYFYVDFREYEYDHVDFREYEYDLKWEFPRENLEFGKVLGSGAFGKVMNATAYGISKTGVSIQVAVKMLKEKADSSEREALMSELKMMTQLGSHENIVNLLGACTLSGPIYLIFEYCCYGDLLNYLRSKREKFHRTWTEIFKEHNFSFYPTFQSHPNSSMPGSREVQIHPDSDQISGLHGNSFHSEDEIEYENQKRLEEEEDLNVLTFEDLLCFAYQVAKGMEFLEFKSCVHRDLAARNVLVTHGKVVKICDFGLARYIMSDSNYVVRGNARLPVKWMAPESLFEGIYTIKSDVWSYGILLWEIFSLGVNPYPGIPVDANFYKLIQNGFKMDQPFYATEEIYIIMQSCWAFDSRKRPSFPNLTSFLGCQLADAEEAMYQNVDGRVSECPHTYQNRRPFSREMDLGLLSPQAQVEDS
From the text: as §1, §2, §3
The BaF3 assays as developed used to generate the data in Tables 7 and 8 are identical and differ only in minor details in regards to vector design, not biological function. Both introduce the FLT3 gene with MV4-11 based ITD duplications and resistance mutations from an exogenous promoter (MSCV and CMV respectively) in the exact same cell line.
As a result of the expressed FLT3 protein, the IL3 factor dependent BaF3 cell clones become IL3-factor independent.
The compounds in Tables 7 and 8 were tested in an identical fashion by incubating such clones in with increasing concentrations. Inhibition of the FLT3 activity by an inhibitor results in factor dependency, which in the absence of IL3 results in cell death in the three day growth assays.

| Compound | IC50 [1] [µM] | IC50 [2] [µM] | GI50 [3] [µM] |
| --- | --- | --- | --- |
| COc1ncc(NC(=O)Cc2ccc(-c3cnc(Nc4cnn(C(F)F)c4C)nc3)cc2)cc1C(F)(F)F [Compound P-0039, 2-[4-[2-[[1-(difluoromethyl)-5-methyl-pyrazol-4-yl]amino]pyrimidin-5-yl]phenyl]-N-[6-methoxy-5-(trifluoromethyl)-3-pyridyl]acetamide] | 0.0001 to 10 | 0.0001 to 10 | 0.0001 to 10 |
| Cn1cc(Nc2ncc(-c3ccc(CC(=O)Nc4ccnc(C(C)(C)C)c4)cc3)cn2)cn1 [Compound P-0112, N-(2-tert-butyl-4-pyridyl)-2-[4-[2-[(1-methylpyrazol-4-yl)amino]pyrimidin-5-yl]phenyl]acetamide] | 0.0001 to 10 | 0.0001 to 10 | 0.0001 to 10 |
| Cn1cc(Nc2ncc(-c3ccc(CC(=O)Nc4ccc(C#N)c(C(F)(F)F)c4)cc3)cn2)cn1 [Compound P-0113, N-[4-cyano-3-(trifluoromethyl)phenyl]-2-[4-[2-[(1-methylpyrazol-4-yl)amino]pyrimidin-5-yl]phenyl]acetamide] | 0.0001 to 10 | 0.0001 to 10 | 0.0001 to 10 |
| Cn1cc(Nc2ncc(-c3ccc(CC(=O)Nc4cnc(Cl)c(Cl)c4)cc3)cn2)cn1 [Compound P-0116, N-(5,6-dichloro-3-pyridyl)-2-[4-[2-[(1-methylpyrazol-4-yl)amino]pyrimidin-5-yl]phenyl]acetamide] | 0.0001 to 10 | 0.0001 to 10 | 0.0001 to 10 |
| Cn1cc(Nc2ncc(-c3ccc(CC(=O)Nc4cnc(Cl)c(Br)c4)cc3)cn2)cn1 [Compound P-0117, N-(5-bromo-6-chloro-3-pyridyl)-2-[4-[2-[(1-methylpyrazol-4-yl)amino]pyrimidin-5-yl]phenyl]acetamide] | 0.0001 to 10 | 0.0001 to 10 | 0.0001 to 10 |
| COc1ncc(NC(=O)Cc2ccc(-c3cnc(Nc4cnn(C)c4)nc3)cc2)cc1Br [Compound P-0118, N-(5-bromo-6-methoxy-3-pyridyl)-2-[4-[2-[(1-methylpyrazol-4-yl)amino]pyrimidin-5-yl]phenyl]acetamide] | 0.0001 to 10 | 0.0001 to 10 | 0.0001 to 10 |
| Cn1cc(Nc2ncc(-c3ccc(CC(=O)NCc4c(Cl)cccc4Cl)cc3)cn2)cn1 [Compound P-0123, N-[(2,6-dichlorophenyl)methyl]-2-[4-[2-[(1-methylpyrazol-4-yl)amino]pyrimidin-5-yl]phenyl]acetamide] | 0.0001 to 10 | 0.0001 to 10 | 0.0001 to 10 |
| Cn1cc(Nc2ncc(-c3ccc(CC(=O)NCc4cc(F)ccc4Cl)cc3)cn2)cn1 [Compound P-0124, N-[(2-chloro-5-fluoro-phenyl)methyl]-2-[4-[2-[(1-methylpyrazol-4-yl)amino]pyrimidin-5-yl]phenyl]acetamide] | 0.0001 to 10 | 0.0001 to 10 | 0.0001 to 10 |

Results, then the compound that gave them:

| IC50 [1] [µM] | IC50 [2] [µM] | GI50 [3] [µM] | Compound |
| --- | --- | --- | --- |
| 0.0001 to 10 | 0.0001 to 10 | 0.0001 to 10 | COc1ncc(NC(=O)Cc2ccc(-c3cnc4[nH]c(-c5ccc(N6CCOCC6)nc5)cc4c3)cc2F)cc1C(F)(F)F [Compound P-0010, 2-[2-fluoro-4-[2-(6-morpholino-3-pyridyl)-1H-pyrrolo[2,3-b]pyridin-5-yl]phenyl]-N-[6-methoxy-5-(trifluoromethyl)-3-pyridyl]acetamide] |
| 0.0001 to 10 | 0.0001 to 10 | 0.0001 to 10 | COc1ccc(-c2cc3cc(-c4ccc(CC(=O)Nc5cnc(OC)c(C(F)(F)F)c5)cc4F)cnc3[nH]2)cn1 [Compound P-0012, 2-[3-fluoro-4-[2-(6-methoxy-3-pyridyl)-1H-pyrrolo[2,3-b]pyridin-5-yl]phenyl]-N-[6-methoxy-5-(trifluoromethyl)-3-pyridyl]acetamide] |
| 0.0001 to 10 | 0.0001 to 10 | 0.0001 to 10 | O=C(Cc1ccc(-c2cnc3[nH]c(Cl)cc3c2)cc1F)Nc1cc(C(F)(F)F)ccn1 [Compound P-0040, 2-(4-(2-chloro-1H-pyrrolo[2,3-b]pyridin-5-yl)-2-fluorophenyl)-N-(4-(trifluoromethyl)pyridin-2-yl)acetamide] |
| 0.0001 to 10 | 0.0001 to 10 | 0.0001 to 10 | CC(C)(C#N)c1ccc(NC(=O)Cc2ccc(-c3cnc4[nH]cc(F)c4c3)cc2F)cn1 [Compound P-0042, N-(6-(2-cyanopropan-2-yl)pyridin-3-yl)-2-(2-fluoro-4-(3-fluoro-1H-pyrrolo[2,3-b]pyridin-5-yl)phenyl)acetamide] |
| 0.0001 to 10 | 0.0001 to 10 | 0.0001 to 10 | COc1ncc(NC(=O)Cc2ccc(-c3cnc(Nc4cn(C(F)F)nc4C)nc3)cc2)cc1C(F)(F)F [Compound P-0054, 2-[4-[2-[[1-(difluoromethyl)-3-methyl-pyrazol-4-yl]amino]pyrimidin-5-yl]phenyl]-N-[6-methoxy-5-(trifluoromethyl)-3-pyridyl]acetamide] |
| 0.0001 to 10 | 0.0001 to 10 | 0.0001 to 10 | COCC#Cc1cc2cc(-c3ccc(CC(=O)Nc4cnc(OC)c(C(F)(F)F)c4)cc3)cnc2[nH]1 [Compound P-0056, 2-[4-[2-(3-methoxyprop-1-ynyl)-1H-pyrrolo[2,3-b]pyridin-5-yl]phenyl]-N-[6-methoxy-5-(trifluoromethyl)-3-pyridyl]acetamide] |
| 0.0001 to 10 | 0.0001 to 10 | 0.0001 to 10 | Cn1cc(Nc2ncc(-c3ccc(CC(=O)Nc4cc(C(C)(F)F)ccn4)c(F)c3)cn2)cn1 [Compound P-0093, N-[4-(1,1-difluoroethyl)-2-pyridyl]-2-[2-fluoro-4-[2-[(1-methylpyrazol-4-yl)amino]pyrimidin-5-yl]phenyl]acetamide] |
| 0.0001 to 10 | 0.0001 to 10 | 0.0001 to 10 | Cn1cc(Nc2ncc(-c3ccc(CC(=O)Nc4cnc5[nH]ccc5c4)cc3)cn2)cn1 [Compound P-0119, 2-[4-[2-[(1-methylpyrazol-4-yl)amino]pyrimidin-5-yl]phenyl]-N-(1H-pyrrolo[2,3-b]pyridin-5-yl)acetamide] |
| 0.0001 to 10 | 0.0001 to 10 | 0.0001 to 10 | Cc1n[nH]c2ncc(NC(=O)Cc3ccc(-c4cnc(Nc5cnn(C)c5)nc4)cc3)cc12 [Compound P-0120, N-(3-methyl-1H-pyrazolo[3,4-b]pyridin-5-yl)-2-[4-[2-[(1-methylpyrazol-4-yl)amino]pyrimidin-5-yl]phenyl]acetamide] |
